Source: PubChem BioAssay AID330 (DTP/NCI, 2004)
Several values for one entry are separate records, joined by “and”; a condition that tells them apart may be missing. Equal entries are not always repeated. Inconclusive results and toxic doses are left out.

Tested on: P388 leukemia ip, CD2F1 mice, survival T/C
Assay: NCI In Vivo Anticancer Drug Screen. Data for tumor model P388 Leukemia (intraperitoneal) in CD2F1 (CDF1) mice
Conditions: endpoint: median survival time, higher = longer survival
Summary of the method: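 Mice carrying the transplanted tumor received test compound or vehicle. Survival was recorded in each group, and the value is the treated-group measurement divided by that of the vehicle-treated control group.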

[1] = dose: 50.0 mg/kg/injection, schedule: Q01DX009 (ip), vehicle: Klucel (hydroxypropylcellulose) (HPC)
[2] = dose: 100.0 mg/kg/injection, schedule: Q01DX009 (ip), vehicle: Klucel (hydroxypropylcellulose) (HPC)
[3] = dose: 200.0 mg/kg/injection, schedule: Q01DX009 (ip), vehicle: Klucel (hydroxypropylcellulose) (HPC)
[4] = dose: 50.0 mg/kg/injection, schedule: Q01DX005 (ip), vehicle: saline with Tween-80
[5] = dose: 100.0 mg/kg/injection, schedule: Q01DX005 (ip), vehicle: saline with Tween-80
[6] = dose: 200.0 mg/kg/injection, schedule: Q01DX005 (ip), vehicle: saline with Tween-80
[7] = dose: 50.0 mg/kg/injection, schedule: Q01DX009 (ip), vehicle: saline with Tween-80
[8] = dose: 100.0 mg/kg/injection, schedule: Q01DX009 (ip), vehicle: saline with Tween-80
[9] = dose: 200.0 mg/kg/injection, schedule: Q01DX009 (ip), vehicle: saline with Tween-80
[10] = dose: 60.0 mg/kg/injection, schedule: Q01DX005 (ip), vehicle: saline with Tween-80
[11] = dose: 120.0 mg/kg/injection, schedule: Q01DX005 (ip), vehicle: saline with Tween-80
[12] = dose: 15.0 mg/kg/injection, schedule: Q01DX005 (ip), vehicle: Klucel (hydroxypropylcellulose) (HPC)

For `CC(CC(N)C(=O)O)C(=O)O` (stereo unspecified), the T/C (dose: 50.0 mg/kg/injection, schedule: Q01DX005 (ip), vehicle: saline) was 103 % of control, the T/C [1] was 103 % of control and the T/C (dose: 100.0 mg/kg/injection, schedule: Q01DX005 (ip), vehicle: saline) was 98 % of control. For the same compound, the T/C [2] was 102 % of control, the T/C (dose: 200.0 mg/kg/injection, schedule: Q01DX005 (ip), vehicle: saline) was 100 % of control and the T/C [3] was 103 % of control. The T/C (dose: 400.0 mg/kg/injection, schedule: Q01DX009 (ip), vehicle: Klucel (hydroxypropylcellulose) (HPC)) was 103 % of control.

For `NCCCCC(C(=O)O)N(C(=O)OCc1ccccc1)C(=O)OCc1ccccc1` (stereo unspecified), the T/C [4] was 106 % of control, the T/C [5] was 101 % of control and the T/C [6] was 97 % of control.

In the case of `C/C=C1\C[C@@H]2C(OC)Nc3cc(O)c(OC)cc3C(=O)N2C1` (stereo partly specified), the T/C (dose: 0.01 mg/kg/injection, schedule: Q04DX003 (ip), vehicle: other) is reported as 97 % of control, the T/C (dose: 0.03 mg/kg/injection, schedule: Q04DX003 (ip), vehicle: other) is reported as 114 % of control and the T/C (dose: 0.1 mg/kg/injection, schedule: Q04DX003 (ip), vehicle: other) is reported as 123 % of control. The T/C (dose: 0.13 mg/kg/injection, schedule: Q04DX003 (ip), vehicle: other) was 160 % of control, the T/C (dose: 0.25 mg/kg/injection, schedule: Q04DX003 (ip), vehicle: other) was 163 % of control and the T/C (dose: 0.3 mg/kg/injection, schedule: Q04DX003 (ip), vehicle: other) was 161 % of control. For the same compound, the T/C (dose: 0.5 mg/kg/injection, schedule: Q04DX003 (ip), vehicle: other) was 168 % of control, the T/C (dose: 1.0 mg/kg/injection, schedule: Q04DX003 (ip), vehicle: other) was 93 % of control and the T/C (dose: 1.0 micrograms/kg/injection, schedule: Q01DX009 (ip), vehicle: other) was 110 % of control. The T/C (dose: 3.0 micrograms/kg/injection, schedule: Q01DX009 (ip), vehicle: other) was 102 % of control, the T/C (dose: 10.0 micrograms/kg/injection, schedule: Q01DX009 (ip), vehicle: other) was 118 % of control and the T/C (dose: 100.0 micrograms/kg/injection, schedule: Q01DX009 (ip), vehicle: other) was 168 % of control. For the same compound, the T/C (dose: 300.0 micrograms/kg/injection, schedule: Q01DX009 (ip), vehicle: other) was 200 % of control.

In the case of `CCOC(=O)C1=C(C)O/C(=C/c2ccco2)C1=O`, the T/C (dose: 25.0 mg/kg/injection, schedule: Q01DX009 (ip), vehicle: Klucel (hydroxypropylcellulose) (HPC)) is reported as 103 % of control, the T/C [1] is reported as 109 % of control and the T/C [2] is reported as 110 % of control and 111 % of control.

In the case of `OCCN(Cc1ccccn1)Cc1ccccn1`, the T/C (dose: 7.5 mg/kg/injection, schedule: Q01DX005 (ip), vehicle: saline) is reported as 99 % of control and the T/C (dose: 15.0 mg/kg/injection, schedule: Q01DX005 (ip), vehicle: saline) is reported as 106 % of control.

In the case of `CC(=O)Oc1ccc(OCc2ccccc2)c(OCc2ccccc2)c1`, the T/C [7] is reported as 102 % of control, the T/C [8] is reported as 99 % of control and the T/C [9] is reported as 107 % of control.

With `CC(C)(C)OC(=O)NC(CC(=O)O)C(=O)O` (stereo unspecified) the T/C (dose: 50.0 mg/kg/injection, schedule: Q01DX009 (ip), vehicle: saline) was 111 % of control, the T/C (dose: 100.0 mg/kg/injection, schedule: Q01DX009 (ip), vehicle: saline) was 93 % of control and the T/C (dose: 200.0 mg/kg/injection, schedule: Q01DX009 (ip), vehicle: saline) was 104 % of control.

In the case of `O=C1NC(=O)/C(=C2\CCOC2=O)N1`, the T/C [7] is reported as 100 % of control, the T/C [8] is reported as 94 % of control and the T/C [9] is reported as 100 % of control.

`CC(=O)OC1(OC(C)=O)C=C2OCOC2=CC1=O` was tested, and the T/C (dose: 8.75 mg/kg/injection, schedule: Q01DX005 (ip), vehicle: Klucel (hydroxypropylcellulose) (HPC)) was 91 % of control and the T/C (dose: 17.5 mg/kg/injection, schedule: Q01DX005 (ip), vehicle: Klucel (hydroxypropylcellulose) (HPC)) was 103 % of control.

`O=C(O)CCC(Nc1ncnc2nc[nH]c12)C(=O)O` (stereo unspecified) was tested, and the T/C [4] was 92 % of control, the T/C [5] was 97 % of control and the T/C [6] was 89 % of control.

In the case of `CCCc1c(C(=O)OCC)c(-c2ccccc2)c(CCC)c2c1-c1cccc3cccc-2c13`, the T/C [7] is reported as 99 % of control, the T/C [8] is reported as 95 % of control and the T/C [9] is reported as 92 % of control.

With `O=C(Nc1cccc2ccccc12)NN1C(=O)CSC1=S` the T/C [7] was 90 % of control, the T/C [8] was 93 % of control and the T/C [9] was 91 % of control.

In the case of `Cc1nc2c([N+](=O)[O-])c(N3CCN(c4ccccc4)CC3)c([N+](=O)[O-])cc2[nH]1`, the T/C [7] is reported as 100 % of control, the T/C [8] is reported as 100 % of control and the T/C [9] is reported as 99 % of control.

In the case of `CCCCCCCCCCCCCCCCOc1ccc(/C=N/Nc2ccccc2)cc1OC`, the T/C [7] is reported as 88 % of control and the T/C [8] is reported as 93 % of control.

In the case of `N/C(=N/S(=O)(=O)c1cccc([N+](=O)[O-])c1)NS(=O)(=O)c1ccc([N+](=O)[O-])cc1`, the T/C (dose: 7.5 mg/kg/injection, schedule: Q01DX009 (ip), vehicle: saline with Tween-80) is reported as 101 % of control, the T/C (dose: 15.0 mg/kg/injection, schedule: Q01DX009 (ip), vehicle: saline with Tween-80) is reported as 113 % of control and the T/C (dose: 30.0 mg/kg/injection, schedule: Q01DX009 (ip), vehicle: saline with Tween-80) is reported as 110 % of control.

`Cc1ccc(S(=O)(=O)OC2CCC3(C)C(CCC4C3CCC3(C)C(C(C)CCCC(C)C)CCC43)C2)cc1` (stereo unspecified) was tested, and the T/C (dose: 3.0 mg/kg/injection, schedule: Q01DX005 (ip), vehicle: Klucel (hydroxypropylcellulose) (HPC)) was 107 % of control, the T/C (dose: 6.0 mg/kg/injection, schedule: Q01DX005 (ip), vehicle: Klucel (hydroxypropylcellulose) (HPC)) was 117 % of control and the T/C (dose: 12.5 mg/kg/injection, schedule: Q01DX005 (ip), vehicle: Klucel (hydroxypropylcellulose) (HPC)) was 100 % of control.

With `CCn1c2nc(=O)[nH]c(=O)c-2cc2ccccc21` the T/C (dose: 45.0 mg/kg/injection, schedule: Q01DX009 (ip), vehicle: saline with Tween-80) was 113 % of control, the T/C (dose: 90.0 mg/kg/injection, schedule: Q01DX009 (ip), vehicle: saline with Tween-80) was 103 % of control and the T/C (dose: 180.0 mg/kg/injection, schedule: Q01DX009 (ip), vehicle: saline with Tween-80) was 101 % of control.

For `C[Si](C)(C)CCCNCCNCCC[Si](C)(C)C`, the T/C [10] was 100 % of control and the T/C [11] was 100 % of control.

In the case of `CCOC(=O)c1[nH]c2ccc(O)c3c2c1CCC3=O`, the T/C [7] is reported as 92 % of control, the T/C [8] is reported as 88 % of control and the T/C [9] is reported as 94 % of control.

In the case of `CC1CC(Cc2ccccc2)C(=O)CC(C)(C)CC(=O)O1` (stereo unspecified), the T/C (dose: 50.0 mg/kg/injection, schedule: Q04DX003 (ip), vehicle: saline) is reported as 100 % of control and 103 % of control and 106 % of control.

For `CN(C)c1ccc(/C=N/NC(=O)c2ccccc2NC(=O)c2ccccc2Cl)cc1`, the T/C (dose: 7.5 mg/kg/injection, schedule: Q01DX005 (ip), vehicle: Klucel (hydroxypropylcellulose) (HPC)) was 86 % of control and the T/C [12] was 86 % of control.

For `Cc1cccc(NC(N)=S)n1`, the T/C (dose: 12.5 mg/kg/injection, schedule: Q01DX009 (ip), vehicle: other) was 108 % of control, the T/C (dose: 25.0 mg/kg/injection, schedule: Q01DX009 (ip), vehicle: other) was 98 % of control and the T/C (dose: 50.0 mg/kg/injection, schedule: Q01DX009 (ip), vehicle: other) was 115 % of control. For the same compound, the T/C (dose: 100.0 mg/kg/injection, schedule: Q01DX009 (ip), vehicle: other) was 119 % of control.

`N#Cc1c(-c2ccc(Cl)cc2)cn2c1[nH]c(=O)c1cc(Br)ccc12` was tested, and the T/C [10] was 99 % of control, the T/C [11] was 102 % of control and the T/C (dose: 240.0 mg/kg/injection, schedule: Q01DX005 (ip), vehicle: saline with Tween-80) was 95 % of control.

With `Cc1cc(C)cc(N=Cc2ccc(C=Nc3cc(C)cc(C)c3)cc2)c1` the T/C [1] was 92 % of control, the T/C [2] was 95 % of control and the T/C [3] was 100 % of control.

`Clc1cc2nc3[nH]c4ccccc4c3nc2cc1Cl` was tested, and the T/C [12] was 93 % of control, the T/C (dose: 30.0 mg/kg/injection, schedule: Q01DX005 (ip), vehicle: Klucel (hydroxypropylcellulose) (HPC)) was 101 % of control and the T/C (dose: 60.0 mg/kg/injection, schedule: Q01DX005 (ip), vehicle: Klucel (hydroxypropylcellulose) (HPC)) was 93 % of control and 98 % of control. The T/C (dose: 120.0 mg/kg/injection, schedule: Q01DX005 (ip), vehicle: Klucel (hydroxypropylcellulose) (HPC)) was 97 % of control.

For `CSC(=S)N/N=C/c1ccccn1`, the T/C (dose: 12.5 mg/kg/injection, schedule: Q01DX009 (ip), vehicle: saline with Tween-80) was 100 % of control, the T/C (dose: 25.0 mg/kg/injection, schedule: Q01DX009 (ip), vehicle: saline with Tween-80) was 104 % of control and 109 % of control and the T/C [7] was 113 % of control.

For `NNC(=O)CCCCl`, the T/C (dose: 60.0 mg/kg/injection, schedule: Q01DX005 (ip), vehicle: saline) was 111 % of control and the T/C (dose: 120.0 mg/kg/injection, schedule: Q01DX005 (ip), vehicle: saline) was 110 % of control.

For `CN1c2cc3ccccc3cc2N(C)c2cc3ccccc3cc21`, the T/C (dose: 50.0 mg/kg/injection, schedule: Q01DX005 (ip), vehicle: Klucel (hydroxypropylcellulose) (HPC)) was 90 % of control and the T/C (dose: 200.0 mg/kg/injection, schedule: Q01DX005 (ip), vehicle: Klucel (hydroxypropylcellulose) (HPC)) was 88 % of control.
